In brackets after ≈: the same amount, converted by molar mass.
Assay: Solubility of the model drugs
Format: physicochemical

CCCCOC(=O)c1ccc(O)cc1 [butyl paraben]
solubility: 200 µg/mL (≈ 1030 µM)

CC(C)n1c(/C=C/C(O)CC(O)CC(=O)O)c(-c2ccc(F)cc2)c2ccccc21 (centres unmarked) [fluvastatin]
solubility: > 50000 µg/mL
